Data on 13 compounds can be found in ChEMBL document CHEMBL2380305, “Discovery of thiazolobenzoxepin PI3-kinase inhibitors that spare the PI3-kinase β isoform” (Bioorg Med Chem Lett, 2013).

Data set [1] can be described thus: in vivo. Particulars: nude, mouse, plasma, iv, 1 mg/kg.
A short description of data set [2]: in vivo. Particulars: Sprague-Dawley, rat, plasma, iv, 1 mg/kg.
Data set [3] in a line: Plasma clearance in dog. It is filed as ADME, organism-based, Canis lupus familiaris.
The next data set concerns Rattus norvegicus. The data set is described as follows: Unbound plasma clearance in Sprague-Dawley rat at 1 mg/kg, iv. Particulars: in vivo. It is filed as ADME, organism-based. Set-up: dose 1 mg/kg, route intravenous.
A short description of data set [4]: Apparent permeability across apical to basolateral side in MDCK cells. The class given is ADME, cell-based, Canis lupus familiaris. Particulars: dog.
Data set [5] can be described thus: Oral bioavailability in Beagle dog at 2 mg/kg. It is filed as ADME, organism-based, Canis lupus familiaris. Particulars: in vivo.
Data set [6] is described as follows: Oral bioavailability in nude mouse at 25 mg/kg. The class given is ADME, organism-based. Particulars: in vivo.
Data set [7] can be described thus: Plasma clearance in Beagle dog at 1 mg/kg, iv. Set-up: dose 1 mg/kg, route intravenous. It is filed as ADME, organism-based, Canis lupus familiaris.
A short description of data set [8]: Oral bioavailability in Sprague-Dawley rat at 5 mg/kg. The class given is ADME, organism-based. Particulars: in vivo.

As to `CC(C)n1ncnc1-c1nc2c(s1)CCOc1cc(-c3cnn(CC(C)(C)O)c3)ccc1-2`, the figures for the clearance in the data set “in vivo [1]” and in the data set “in vivo [2]” were 3.1 mL/min/kg and 6.8 mL/min/kg, respectively.

For `CC(C)n1nc(N)nc1-c1nc2c(s1)CCOc1cc(-c3cnn(CC(C)(C)O)c3)ccc1-2`, the figures for the clearance in the data set “in vivo [1]” and in “in vivo [2]” were 4 mL/min/kg and 55 mL/min/kg, respectively.

`CC(C)n1ncnc1-c1nc2c(s1)CCOc1cc(C3CN(C(C)(C)C(N)=O)C3)ccc1-2`: the clearance in “in vivo [1]” was 104 mL/min/kg; in the data set “in vivo [2]”, 55 mL/min/kg.

For the compound `CC(C)n1c(-c2nc3c(s2)CCOc2cc(-c4cnn(CC(C)(C)O)c4)ccc2-3)n[nH]c1=O`, the values for the clearance in the data set “in vivo [1]” and in the data set “in vivo [2]” were 22 mL/min/kg and 84 mL/min/kg, respectively.

With `CC(C)n1ncnc1-c1cc2c(s1)-c1ccc(C(N)=O)cc1OCC2`, in [3], the clearance was determined as 100 mL/min/kg.

As to `CC(C)n1ncnc1-c1nc2c(s1)CCOc1cc(-c3cnn(C(C)(C)C(N)=O)c3)ccc1-2`, the CL free in the data set on Rattus norvegicus worked out at 625 mL/min/kg. Also, the clearance was found to be 13.4 mL/min/kg in “in vivo [1]” and 10 mL/min/kg in the data set “in vivo [2]”.

Take `CC(C)n1ncnc1-c1nc2c(s1)CCOc1cc(C3CN(CC(C)(C)O)C3)ccc1-2`: the clearance in the data set “in vivo [1]” was 170 mL/min/kg; in “in vivo [2]”, 163 mL/min/kg.

`CC(C)n1ncnc1-c1nc2c(s1)CCOc1cc(C3CN(CCO)C3)ccc1-2`: the values for the clearance in “in vivo [1]” and in the data set “in vivo [2]” were 132 mL/min/kg and 128 mL/min/kg, respectively.

Regarding `CC(C)n1ncnc1-c1nc2c(s1)CCOc1cc(-c3cnn(CS(C)(=O)=O)c3)ccc1-2`, the clearance in “in vivo [1]” came to 3.2 mL/min/kg; in the data set “in vivo [2]” it was 6.1 mL/min/kg.

For `CC(C)n1ncnc1-c1nc2c(s1)CCOc1cc(C3CN(C[C@H](O)CO)C3)ccc1-2`, the clearance was 165 mL/min/kg in the data set “in vivo [1]” and 57 mL/min/kg in “in vivo [2]”.

For the compound `CC(C)n1ncnc1-c1nc2c(s1)CCOc1cc(C3CN(C(=O)C(C)(C)N)C3)ccc1-2`, the CL free in the data set with Rattus norvegicus stood at 1153 mL/min/kg. The same compound displayed a clearance in “in vivo [2]” of 60 mL/min/kg.

As for `CC(C)n1ncnc1-c1nc2c(s1)CCOc1cc(-c3cnn(CCO)c3)ccc1-2`, in data set [4], the Papp A→B came out at 16 ×10⁻⁶ cm/s. For the same compound, the bioavailability in data set [5] is 22%; in data set [6] it was 110%; in [8], 83%. The values for the clearance (in data set [7]; in “in vivo [1]”; in the data set “in vivo [2]”) were 14 mL/min/kg, 9.5 mL/min/kg and 5.4 mL/min/kg, respectively.

For `Cc1nc(-c2nc3c(s2)CCOc2cc(-c4cnn(CCO)c4)ccc2-3)n(C(C)C)n1`, the figures for the clearance in the data set “in vivo [1]” and in “in vivo [2]” were 2.2 mL/min/kg and 1.9 mL/min/kg, respectively.
